According to article PMC11676886 (Pharmaceutics, 2024):
Converted amounts (≈) assume the structure as drawn.

Assays:
physchem = assay type: physicochemical
Procedure: The mobile phase consisted of 50% acetonitrile and 50% purified water with a flow rate set to 1 mL/min and a column temperature set to 30 °C. The injection volume was 20 µL analyzed at a wavelength set to 230 nm for all analytical measurements.
Samples were prepared by the shake-flask method in glass vials containing 2 mg drug compound and 1 mL dispersion medium consisting of either buffer solutions (50 mM acetate buffer, pH 4.0 or 50 mM citric buffer, pH 3.0) or stabilizer solutions containing 1%, 2%, or 3% polysorbate 20 or vitamin E TPGS dissolved in the buffer solutions. The samples were rotated for 24 h at 40 rpm on a Multi-Rotator (PTR-60, Grant-Bio, Grant Instruments, Cambridgeshire, UK) while stored at 40 °C and protected from light. Samples were prepared in triplicate (n = 3). After equilibration, the samples were filtered with a 0.22 µm hydrophobic polytetrafluoroethylene membrane (VWR International, LLC, Radnor, PA, USA) with sampling tools equilibrated to 40 °C while the clear supernatant was diluted to an appropriate concentration with the mobile phase (50:50 acetonitrile and purified water) and analyzed by the method described above.

[1] = parameters: method as in doi:10.1016/j.jddst.2024.105605; conditions: 4% (w/v) polysorbate 20; cited from earlier work

COc1ccc2c(c1)c(CC(=O)O)c(C)n2C(=O)c1ccc(Cl)cc1 [indomethacin]
solubility at 24 h (physchem; 40 °C, pH 3, aqueous buffer, thermodynamic from solid): 2 µg/mL (≈ 5.59 µM) | solubility at 24 h (physchem; 40 °C, pH 4, aqueous buffer, thermodynamic from solid): 3 µg/mL (≈ 8.38 µM) | solubility at 24 h (physchem; pH 4): 640 µg/mL (≈ 1790 µM) | solubility [1]: approximately 0.70 mg/mL
